Test results from patent publication US10092568B2, “CBP/Catenin antagonists for enhancing asymmetric division of somatic stem cells” (University of Southern California, priority 2010, dated 2018).
Entries after “also recorded” stand apart in the source; their conditions may differ.

Key:
[1] = test system: p300/beta-catenin interaction; test: Disruption of the p300/beta-catenin interaction; type: biochemical
Excerpt: Applicant next mapped the binding domains between CBP and beta-catenin, as well as between p300 and beta-catenin. The C-terminal trans-activating region of beta-catenin (647-781) interacted with the same 1-111 amino acids of both CBP and p300 (23). However, only the interaction between CBP and beta-catenin was disrupted by ICG-001, and not the p300/beta-catenin interaction.
(§1) IQ-1. In addition to ICG-001, a screen of a large chemical library for maintenance of pluripotency in mES cells led to the identification of another compound, termed IQ-1 (FIG. 2b). […] I-Q-1 diminishes the interaction between p300 and beta-catenin thereby increasing the CBP/beta-catenin interaction (24).

[2] = test system: PR72/130 subunit of the serine/threonine phosphatase PP2A; test: Binding to PP2A subunit
Excerpt: as §1

[3] = test system: murine embryonic stem cells (mESCs); test: Maintenance of pluripotency of embryonic stem cells in long-term culture; type: cell-based, mouse; conditions: Wnt-dependent
Excerpt: as §1
Similar results upon selectively antagonizing the p300/catenin interaction have also been obtained with human ES cells (32; Hasegawa, K. et al. accepted Stem Cells Translation Medicine 2011). Blocking the CBP/catenin interaction with ICG-001 can prevent the induction of pluripotency, whereas selectively antagonizing the p300/catenin interaction can enhance reprogramming (33; present applicant unpublished data).

p300 at Ser-89 = test: Phosphorylation of p300 at Ser-89; type: cell-based
Excerpt: as §1

[4] = test system: mitotic cells in the ventricular zone (VZ); test: Par3 localization assay of symmetric versus asymmetric divisions in the ventricular zone of embryonic brain; type: in vivo, mouse
Excerpt: Taking advantage of the ready uptake and penetration through the placental barrier of applicant's small molecule Wnt modulators, applicant designed a series of experiments to investigate symmetric versus asymmetric divisions in the ventricular zone (VZ) of the brain during mouse embryonic development. Timed pregnant mice were topically treated for various time periods (1-3 days) with DMSO (vehicle control), the CBP/catenin antagonist ICG-001 or the p300/catenin antagonist IQ-1. Using a previously described protocol (56), the localization of […] (Par3) and DNA was examined in mitotic cells in the VZ. Par3 distributes symmetrically in cells that divide symmetrically and asymmetrically in cells that divide asymmetrically, whereas the DNA distributes symmetrically between the 2 cells. Using fluorescence microscopy, the percentage of mitotic cells dividing symmetrically or asymmetrically could be quantified. […] Antagonizing the CBP/catenin interaction with ICG-001 had no apparent effect yielding similarly, approximately 21% asymmetric divisions. […] Importantly, this decrease in asymmetric divisions upon treatment with IQ-1 could be rescued back essentially to control levels (i.e. ˜21%) by treatment with a 2-fold excess of ICG-001. Even further divergence in symmetric versus asymmetric divisions could be seen upon prolonged treatments. For example, treatment with IQ-1 (i.e., antagonizing p300/catenin interaction leading to increased usage of CBP) for 3 days (E13.5-16.5) decreased asymmetric divisions compared to control from 31% to 7%. […] This reporter mouse expresses EGFP, driven by the Tis21 promoter, in cells that have undergone neurogenic differentiative divisions.
For example, Bultje et al. (Bultje R Neuron 63, 189-202, 2009) describe an assay to measure asymmetric distributions in the ventricular zone (vz) to evaluate asymmetric divisions during neurogenesis. Essentially this involves treating the animal (either adult or in utero) for a set period of time with compounds (either p.o., s.c., i.v. or topically) with compounds and then sacrificing the animal and examining the Par3 distribution (e.g., via immunohistochemistry) in mitotic cells vs. DNA distribution (e.g., using DAPI staining) Par3 distributes equally among the two daughter cells during symmetric division and unequally (essentially all in one daughter cell) during asymmetric differentiation.

skin injury = test: Skin injury repair in normal mice and hair-less mice models; type: in vivo, mouse; conditions: 500 μM in vaseline once a day for eight days, both animal models
Method: The ability of CBP/catenin (e.g., CBP/β-catenin) antagonist to accelerate injured skin repair in normal mice models (having full hair growth and normal fur) and hair-less mice models was tested. In brief, on day 0, the animals were subjected to skin injury in two spots on the back, hind end of each animal. Each skin injury spot was treated with 500 μM of either Vaseline (petrolatum) (vehicle) or Laura-8 in vaseline once a day for eight days.

hair-less mouse model = test: Hair growth in a hair-less mouse model; type: in vivo
Method: The ability of CBP/β-catenin antagonist to stimulate hair growth in a hair-less mouse model was tested. In brief, the animals were treated with either petroleum jelly or Laura-8 for 16 days. In addition, skin samples from each animal were taken and examined for hair-follicle formulation.

aging mice = test: Long term topical treatment of aging mice; type: in vivo, mouse; conditions: 12 months, from 6 to 18 months of age
Excerpt: Left mouse is control, whereas right mouse received CBP/catenin (e.g., CBP/β-catenin) antagonists (topical Laura-8 as disclosed herein) for 12 months (from 6 months of age to 18 months of age).

[5] = test system: human skin (surgical waste); test: Ex vivo human skin assay, qRT-PCR; type: cell-based; conditions: 24 hrs; 5 uM ICG-001, 5 uM methylated ICG-001, 1 ug/ml RA
Method: Methods. Ex Vivo human skin assay culture conditions were based upon a paper by Varani J et al Experimental and Molecular Pathology, 2004.
Briefly, human skin (surgical waste from plastic surgery procedures) was obtained and the subcutaneous layer of fat was trimmed manually with a scalpel. The skin was then cut into small fragments about 2 mm square and placed in 6 well plates. 1 ml of keratinocyte culture medium (Gibco 10724-011) with 1% P/S (penstrep antibiotic) was added to each well. The epidermis, bathed in media was placed facing up. On the next day (overnight culture in the media above), the skin fragments were transferred to fresh wells that contained either 5 uM ICG-001, 5-uM methylated ICG-001 or 1 ug/ml of retinoic acid (RA). After 24 hrs, skin samples in culture were removed for RNA isolation and qRT-PCR analysis of genes of interest (e.g., elastin (a gene involved in skin appearance and pliability (e.g., wrinkling)) and aquaporin 1, which is involved with hydration.

CC(=O)c1ccc(N=NC(C(N)=O)=C2NC(C)(C)Cc3ccccc32)cc1 [IQ-1, reference compound]
p300/beta-catenin interaction [1]: diminishes | binding to PR72/130 subunit of PP2A [2]: binds | pluripotency of mESCs [3]: maintains the pluripotency; also recorded: prevents spontaneous differentiation | phosphorylation of p300 at Ser-89 (p300 at Ser-89): decreased phosphorylation | asymmetric divisions in the VZ ([4]; 3 days, E13.5-16.5, control 31%): 7% | number of symmetric differentiative divisions ([4]; normal neural stem cells): increase | number of asymmetric divisions compared to vehicle control ([4]; topical or oral administration to pregnant mice): decreases | asymmetric divisions in the VZ ([4]; topical, 1 day, E13.5 to 14.5, DMSO approximately 21%): approximately 9%

CCCCCCCCCCCC(=O)Oc1ccc(C[C@H]2C(=O)N(Cc3cccc4ccccc34)C[C@@H]3N(C(=O)NCc4ccccc4)CCC(=O)N32)cc1 [Laura-8]
skin healing (skin injury): significantly accelerated | hair growth (hair-less mouse model; 16 days, versus petroleum jelly): significant hair growth | new hair-follicle formation (hair-less mouse model; skin pathology): new hair-follicles were formed; also recorded: substantial new hair-follicle formation | normal stem cell niche (aging mice): does not deplete

C[C@H]1C2N(C(=O)NCc3ccccc3)CCC(=O)N2[C@@H](Cc2ccc(O)cc2)C(=O)N1Cc1cccc2ccccc12 (some centres unmarked) [Me-ICG-001]
expression of aquaporin 1 [5]: larger increase | expression of elastin [5]: larger increase
